Activity calls are given as the source filed them. No cut-off for these calls is given here.
What was measured:
[1] = tested on: Human betaherpesvirus 5; assay: Compound was tested for cytotoxicity against human cytomegalo virus at 100 uM; NA - no activity; type: functional, organism-based
[2] = tested on: Human betaherpesvirus 5; assay: Compound was tested for complete inhibition of growth rate against human cytomegalo virus; type: functional

With `Nc1nncc2c1ccn2C1O[C@H](CO)[C@@H](O)[C@H]1O` (some centres not stated) the Activity [1] was “inactive” and the Inhibition [2] was 0.043 µM.
